Assay results published in patent US8148334B2, “Peptides with capacity for binding with interleukine 10 (IL-10)” (Proyecto de Biomedicina Cima, S.L., priority 2007, dated 2012).
Where two headings read alike, the source gives them in different places. Where a SMILES comes first, the peptide text is derived from it. Where no end group is shown, it is not given here.

How the values were obtained:
[1] = Solubilization of 1 mg/mL peptides in culture medium, DMSO or urea; format: physicochemical; details: for Resuspension with DMSO: DMSO 2% of final volume of 1 mg/mL stock and clean medium, after sonication
Experimental: In order to measure the capacity of the peptides to inhibit IL-10, it is necessary for them to be in solution in the culture medium in which the proliferation assay with MC/9 cells is conducted. To that end, an attempt was first made to dissolve the peptides in complete medium at the concentration of 1 mg/mL. Due to the fact that, of the 26 peptides of Table 1, only 10 were soluble and 2 were partially soluble in these conditions (Table 3), it was necessary to improve the solubility of the remaining peptides by adding different proportions of dimethyl sulfoxide (DMSO) or urea. Other solubilizing agents, such as guanidine hydrochloride, ethanol, methanol, isopropanol, dimethylformamide (DMF), acetone, acetonitrile, ammonia and acetic acid were also tested, but due to the fact that they were not very effective or toxic for the cells, their use was discarded. For the purpose of limiting as much as possible the toxicity of DMSO or urea, the concentration of both agents in the culture medium was kept as low as possible compatible with the in vitro assay. Thus, the maximum concentration of solubilizing agent to be added which allows conducting the in vitro proliferation assay of MC/9 cells was first determined. As indicated above, 1, 0.5, 0.1, 0.05, 0.01, 0.005 and 0.001% acetic acid, ammonia, DMSO, DMF, acetone, acetonitrile, isopropanol, methanol and ethanol and 2, 1, 0.5, 0.250, 0.125, 0.062 and 0.031 M urea and guanidine hydrochloride were tested.
Guanidine hydrochloride was very toxic in all tested concentrations. […] In the case of urea, the limit concentration was 125 mM, and for ammonia, 0.2% (maximum tested). In relation to the alcohols, they were compatible up to 1% (maximum) and acetone and acetonitrile seemed to induce MC/9 cell proliferation. DMSO: • The resuspension of the peptides identified as SEQ ID NO: 5, SEQ ID NO: 6, SEQ ID NO: 9, SEQ ID NO: 12, SEQ ID NO: 15 and SEQ ID NO: 16 with DMSO (2% of the final volume of the 1 mg/mL stock) and clean medium was tested. After subjecting them to sonication, all of them were still cloudy, except the peptide identified as SEQ ID NO: 16. Methanol/Ethanol • To dissolve peptides using these alcohols, it is necessary to use them at 100% and at this concentration they are toxic for MC/9 cells. They are toxic even at 70%. Urea • The peptides identified as SEQ ID NO: 6, SEQ ID NO: 16, SEQ ID NO: 17, SEQ ID NO: 18 and SEQ ID NO: 20 were dissolved in 8 M urea (final concentration 0.8 M in 1 mg/mL) and complete medium. Urea is relatively toxic (cpm without urea 1.128, with 120 mM urea 109, with 80 mM 308 and with 20 mM 800, but the window is maintained).
Of the total of 39 peptides indicated, 11 (in bold print) could not be solubilized with any of the indicated conditions, therefore they could not be tested in the in vitro assay.
The peptides which could not be solubilized with any of the tested conditions are indicated in bold print. part S: partially soluble; S: soluble; I: insoluble

[2] = system: MC/9 cells; test: Toxicity: inhibition of mGM-CSF-induced MC/9 cell proliferation; format: cell-based, mouse; details: inhibition of proliferation induced by 0.01 ng/mL mGM-CSF
Excerpt: The addition of peptides with the capacity to inhibit the activity of IL-10 to the MC/9 cell culture, to which exogenous IL-10 has been added, has the effect of inhibiting the proliferation of these cells due to the fact that IL-10 promotes the proliferation thereof. However, the addition of a peptide or any component to the culture (used to improve peptide solubility) which was toxic for MC/9 cells would also have the effect of inhibiting cell proliferation. […] For this purpose, an assay in parallel of the peptides using mouse granulocyte-monocyte colony-stimulating factor (mGM-CSF) (which also promotes MC/9 cell proliferation) instead of IL-10 was conducted. The concentration of mGM-CSF used was 0.01 ng/mL. In this case, IL-4 was not used as co-stimulus. The toxicity was expressed as the percentage of inhibition of the proliferation induced by mGM-CSF.
In the case of the peptides dissolved in urea, when analyzing both the IL-10 inhibition and the toxicity, negative, positive controls and controls with antibody with the concentrations of urea present in the peptide sample (120 mM, 80 mM and 20 mM) as well as controls without urea were included. The percentage of inhibition at each concentration of peptide was calculated comparing the cpm values of the sample with the values of the controls which contained the same concentration of urea.

[3] = 1 mg/mL peptide, read-out: Solubility, Complete medium
[4] = 1 mg/mL peptide, read-out: Solubility, 0.8 M UREA

## CC(C)C[C@H](NC(=O)CNC(=O)[C@H](C)NC(=O)[C@H](CS)NC(=O)[C@@H](NC(=O)[C@H](Cc1ccccc1)NC(=O)[C@H](Cc1ccccc1)NC(=O)[C@H](CO)NC(=O)[C@@H](N)CCC(=O)O)C(C)C)C(=O)N[C@@H](CS)C(=O)N[C@@H](CCCNC(=N)N)C(=O)N[C@@H](CC(C)C)C(=O)N[C@@H](CCC(N)=O)C(=O)N1CCC[C@H]1C(=O)N[C@@H](Cc1ccc(O)cc1)C(=O)O [compound 23] (H-ESFFVCAGLCRLQPY-OH; N-terminus and C-terminus assumed)
[1]; 1 mg/mL peptide
  Solubility, 0.8 M UREA: Turbidity
[1]; [3]
  solubility: < 1000 µg/mL

## GVLSSIFSWRLVALH [compound 12]
[1]; 1 mg/mL peptide
  Solubility, 0.8 M UREA: Turbidity
  Solubility, 2% DMSO: Turbidity
[1]; [3]
  solubility: < 1000 µg/mL

## WSLLRIVYNRHSHSK [compound 16]
[1]; [4]
  solubility: > 1000 µg/mL
[1]; 1 mg/mL peptide, read-out: Solubility, 2% DMSO
  solubility: < 1000 µg/mL
[1]; [3]
  solubility: < 1000 µg/mL

## RFYHADMLLRHVLMM [P8]
[1]
  Resuspension with DMSO: still cloudy

## FRSFHYHTGRWHWLP [compound 22]
[1]; [3]
  solubility: < 1000 µg/mL

## AKVPSFRRSSLGSVR [compound 4]
[1]; [3]
  solubility: > 1000 µg/mL

## WAYYHAGHSSFAVWT [P14]
[1]
  Resuspension with DMSO: still cloudy

## RFYHADMLLRHVLMM [compound 5]
[1]; 1 mg/mL peptide
  Solubility, 0.8 M UREA: Turbidity
  Solubility, 2% DMSO: Turbidity
[1]; [3]
  solubility: < 1000 µg/mL

## CC[C@H](C)[C@H](NC(=O)[C@H](CC(C)C)NC(=O)[C@H](Cc1ccccc1)NC(=O)CNC(=O)[C@@H](NC(=O)[C@H](CC(C)C)NC(=O)[C@H](C)NC(=O)[C@H](CO)NC(=O)[C@H](CS)NC(=O)CN)C(C)C)C(=O)N[C@@H](CC(C)C)C(=O)N[C@@H](CC(C)C)C(=O)N[C@@H](CS)C(=O)N[C@@H](CS)C(=O)N[C@@H](CCSC)C(=O)O [compound 26] (H-GCSALVGFLILLCCM-OH; N-terminus and C-terminus assumed)
[1]; 1 mg/mL peptide
  Solubility, 0.8 M UREA: Turbidity
[1]; [3]
  solubility: < 1000 µg/mL

## ARWMHRHHGWSDRHR [compound 2]
[1]; [3]
  solubility: > 1000 µg/mL

## FSWYFRHHRLMVAGP [compound 18]
[1]; [4]
  solubility: > 1000 µg/mL
[1]; [3]
  solubility: < 1000 µg/mL

## TRHRHVPRFLPLRHV [P13]
[1]
  solubility: soluble

## WAYYHAGHSSFAVWT [compound 9]
[1]; 1 mg/mL peptide
  Solubility, 0.8 M UREA: Turbidity
  Solubility, 2% DMSO: Turbidity
[1]; [3]
  solubility: < 1000 µg/mL

## IFRVLSRMLPGTSVI [compound 13]
[1]; [3]
  solubility: > 1000 µg/mL

## RKLRPHWLHFHPVAV [compound 1]
[1]; [3]
  solubility: > 1000 µg/mL

## HRWMPHVFAVRQGAS [compound 7]
[1]; [3]
  solubility: > 1000 µg/mL

## HGFFAGGLAHWHGHR [P26]
[2]
  toxicity for MC/9 cells: partially toxic

## ARFPKELRGSVRSAH [compound 14]
[1]; [3]
  solubility: > 1000 µg/mL

## GRFRHYSMLRHHSIR [compound 19]
[1]; [3]
  solubility: > 1000 µg/mL

## CC(C)C[C@H](NC(=O)[C@H](Cc1ccccc1)NC(=O)[C@H](C)NC(=O)[C@H](CC(C)C)NC(=O)[C@@H](NC(=O)[C@H](Cc1ccccc1)NC(=O)[C@H](CC(C)C)NC(=O)[C@H](Cc1c[nH]cn1)NC(=O)[C@H](CS)NC(=O)[C@H](CS)NC(=O)[C@H](CCCNC(=N)N)NC(=O)[C@H](Cc1c[nH]cn1)NC(=O)[C@H](C)N)[C@@H](C)O)C(=O)N[C@@H](Cc1ccccc1)C(=O)N[C@@H](C)C(=O)O [compound 21] (H-AHRCCHLFTLAFLFA-OH; N-terminus and C-terminus assumed)
[1]; 1 mg/mL peptide
  Solubility, 0.8 M UREA: Turbidity
[1]; [3]
  solubility: < 1000 µg/mL

## HGFFAGGLAHWHGHR [compound 20]
[1]; [4]
  solubility: > 1000 µg/mL
[1]; [3]
  solubility: < 1000 µg/mL

## CC(C)[C@H](NC(=O)[C@H](C)NC(=O)[C@@H](NC(=O)[C@@H]1CCCN1C(=O)[C@H](Cc1c[nH]cn1)NC(=O)[C@H](CCCNC(=N)N)NC(=O)[C@H](CCCNC(=N)N)NC(=O)[C@H](Cc1ccccc1)NC(=O)[C@H](Cc1c[nH]cn1)NC(=O)[C@H](Cc1ccccc1)NC(=O)[C@H](CS)NC(=O)[C@H](CCCNC(=N)N)NC(=O)[C@H](Cc1c[nH]cn1)NC(=O)[C@@H](N)CS)C(C)C)C(=O)N[C@@H](Cc1ccccc1)C(=O)O [compound 6] (H-CHRCFHFRRHPVAVF-OH; N-terminus and C-terminus assumed)
[1]; 1 mg/mL peptide
  Solubility, 2% DMSO: Turbidity
[1]; [4]
  solubility: > 1000 µg/mL
[1]; [3]
  solubility: < 1000 µg/mL

## RGWILDVVYLYPGPL [compound 17]
[1]; [4]
  solubility: < 1000 µg/mL
[1]; [3]
  solubility: < 1000 µg/mL

## FSWYFRHHRLMVAGP [P24]
[2]
  toxicity for MC/9 cells: partially toxic

## LFLLSGVFVPDLHEG [compound 24]
[1]; 1 mg/mL peptide
  Solubility, 0.8 M UREA: Turbidity
[1]; [3]
  solubility: < 1000 µg/mL

## GRVPSMFGGHFFFSR [P21]
[1]
  Resuspension with DMSO: still cloudy

## CC(C)[C@H](NC(=O)[C@H](C)NC(=O)[C@@H](NC(=O)[C@@H]1CCCN1C(=O)[C@H](Cc1c[nH]cn1)NC(=O)[C@H](CCCNC(=N)N)NC(=O)[C@H](CCCNC(=N)N)NC(=O)[C@H](Cc1ccccc1)NC(=O)[C@H](Cc1c[nH]cn1)NC(=O)[C@H](Cc1ccccc1)NC(=O)[C@H](CS)NC(=O)[C@H](CCCNC(=N)N)NC(=O)[C@H](Cc1c[nH]cn1)NC(=O)[C@@H](N)CS)C(C)C)C(=O)N[C@@H](Cc1ccccc1)C(=O)O [P9] (H-CHRCFHFRRHPVAVF-OH; N-terminus and C-terminus assumed)
[1]
  solubility: insoluble
  Resuspension with DMSO: still cloudy

## TRHRHVPRFLPLRHV [compound 8]
[1]; [3]
  solubility: > 1000 µg/mL

## GAGVLTPFTWRRFHM [compound 10]
[1]; [3]
  solubility: > 1000 µg/mL

## PFVVSDIAFMGLFYD [compound 3]
[1]; [3]
  solubility: < 1000 µg/mL

## RMLGFMSGSWRTPVR [compound 11]
[1]; [3]
  solubility: > 1000 µg/mL

## GVLSSIFSWRLVALH [P18]
[1]
  Resuspension with DMSO: still cloudy

## GRVPSMFGGHFFFSR [compound 15]
[1]; 1 mg/mL peptide
  Solubility, 0.8 M UREA: Turbidity
  Solubility, 2% DMSO: Turbidity
[1]; [3]
  solubility: < 1000 µg/mL

## HRHFRWLNGMPRLLG [compound 25]
[1]; [3]
  solubility: < 1000 µg/mL
